Results on 1 compound are retold here after patent US11718628B2, “SREBP inhibitors comprising a 6-membered central ring” (Capulus Therapeutics, LLC, priority 2018, dated 2023).

The nature of data set [1]: In vivo pharmacokinetic properties in rats (IV and PO). The following applies: male, Sprague Dawley, rat, plasma. Set-up: species or system male Sprague Dawley rats. In outline:
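Male Sprague Dawley rats received 2.00 mg/kg IV via the tail vein, with plasma sampled from a cannulated jugular vein from 0.083 to 24 h. Oral dosing was 10 mg/kg in rats or C57BL/6J mice, sampled at 0.25-24 h by jugular cannula (rats) or retro-orbital plexus (mice).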

For orientation: bioavailability means dose-corrected exposure relative to a reference, in per cent. The term melting point denotes the temperature, or range, at which the solid turns liquid.

Like-named read-outs stand apart in the source and are kept apart here.

Turning to `CC(C)(C)c1cc(-c2cncc(-c3ccc(C(=O)N4CCC(O)CC4)cc3)c2F)ccn1` [Compound Z-866, (4-(2′-(tert-butyl)-4-fluoro-[3,4′-bipyridin]-5-yl)phenyl)(4-hydroxypiperidin-1-yl)methanone], the melting point was 100 to 104 °C. In data set [1] (10 mg/kg, heading: Oral Administration AUC0-last, PO, 10 mg/kg), this compound displayed an AUC(0-t) of 151 ng·h/mL. The AUC(0-t) in data set [1] (IV, 2 mg/kg, read-out: Intravenous Delivery (IV) AUC0-last) stood at 1070 ng·h/mL. The clearance in data set [1] (IV, 2 mg/kg, read-out: Intravenous Delivery (IV) CL) worked out at 31.7 mL/min/kg. Moreover, the half-life in data set [1] (IV, 2 mg/kg, read-out: Intravenous Delivery (IV) T1/2 (converted)) is 54.6 min. For the same compound, in data set [1] (IV, 2 mg/kg, read-out: Intravenous Delivery (IV) Vd), the Vd is 2.54 L/kg. Further, in data set [1] (PO 10 mg/kg vs IV 2 mg/kg, read-out: % F (Bioavailability of oral delivery)), the bioavailability turned out to be 2.8%. The half-life in data set [1] (PO, 10 mg/kg, read-out: Oral Administration (PO) T1/2 (converted)) is 41.4 min. The Tmax in data set [1] (PO, 10 mg/kg, read-out: Oral Administration (PO) Tmax) turned out to be 30 min.
